Format in all cases: cell-based, human
The test system of one test is c-Jun. As to the kind of experiment: Phosphokinase array / Western blot for phosphorylated and total c-Jun in OCSCs. On the procedure:
(§1) SDS-PAGE and Western blots were performed using 20 μg of total protein lysate as described in Kamsteeg, et al., 2003, Oncogene 22:2611-2620. Antibodies used were: mouse anti-phospho ERK (Santa Cruz Biotechnology, Inc., Dallas, Tex.); rabbit anti-phospho c-Jun, rabbit anti c-Jun, rabbit anti-ERK, rabbit anti-cleaved caspase 3 all from Cell Signaling Technology, Danvers, Mass.; and mouse anti-GAPDH (Sigma-Aldrich).
(§2) In order to elucidate the early pathways responsible for the sustained cytotoxic effect observed with TRX-E-002-1, a phosphokinase array was performed. The phosphokinase array detected relative phosphorylation levels of 43 different kinases involved in major signal transduction pathways.
(§3) The western blot results also validated the decrease in p-ERK in cells treated with TRX-E-002-1. […] The effect on the phosphorylation status of the kinases (upregulation of p-cJun and downregulation of p-ERK) was observed as early as 2 h post-treatment and maintained up to 24 h (FIG. 4A). The phosphorylation levels of c-Jun and ERK correlate with the differential ability of the two doses of TRX-E-002-1 to induce a sustained cytotoxic effect. […] This correlates with the ability of this dose of TRX-E-002-1 to maintain the upregulation of p-cJun and downregulation of p-ERK even when the compound is removed (FIG. 4B). […]
In general terms: In western blotting, separated proteins are transferred to a membrane and probed.

Another test relates to OCSC2 spheroids. The test is described as follows: 3D spheroid integrity by kinetic imaging. The note with it: compared to the control; dose-dependent. On the procedure:
(§4) CD44+/MyD88+ ovarian cancer stem cell clones (OCSC1 and OCSC2) and CD44−/MyD88− ovarian cancer cells (OCC1 and OCC2) were isolated from either tumor tissue or ascites obtained from patients diagnosed with stage III/IV serous ovarian cancer and propagated (Alvero, et al., 2009, Cell Cycle 8:158-166; Chefetz, et al., 2013, Cell Cycle 12:511-521). The epithelial nature of the isolated cells was determined by immunostaining for Ck18. Purity of the cultures based on CD44 expression by flow cytometry and chemoresistance were routinely tested. Stable expression of nuclear-restricted red fluorescent (in OCSCs) or green fluorescent proteins (in OCCs) was performed by transduction using NUCLIGHT® Red or Green Lentivirus Reagent (Essen Bioscience, Ann Arbor, Mich.). Spheroids were formed from OCSCs by culturing in ultra-low attachment multi-well plates (Corning, Inc., Corning, N.Y.).
Spheroids represent a 3D in vitro tumor model of multiple cell layers that mimic tumors in vivo. In ovarian cancer, spheroid cultures not only mimic ovarian solid tumors, but also ovarian cancer cells found in malignant ascites. Spheroid cultures allow one to test the capacity of compounds to diffuse through multiple layers of cells and induce cell death. It further allows one to test the efficacy of treatment against the mesenchymal cancer subtype. […]

For test [1], the system named is OCSC2 (chemoresistant CD44+/MyD88+ ovarian cancer stem cell clone). As to the kind of experiment: Real-time measurement of cell number/cell death and IC50, OCSC2 clone. The note with it: OCSC2, 24 hours (FIG. 1G). On the procedure:
as §4
(§5) Effect of each compound on cell morphology, growth, and viability was assessed using a kinetic live cell imaging system (Incucyte, Essen Bioscience). Proliferation was calculated as previously described (Alvero, et al., 2011, Mol. Cancer Ther. 10:1385-1393) using metrics from either confluence or fluorescent count from nuclear-restricted RFP or GFP. Cell death was quantified; similarly CELLTOX® Green Cytotoxicity Assay (Promega, Madison, Wis.). IC50 was calculated as described using GraphPad Prism (GraphPad Software Inc., LaJolla, Calif.).
A panel of four different SBP subfamilies with cytotoxic activity against chemoresistant ovarian cancer stem cells were tested for efficacy in inducing ovarian cancer stem cell death. […] The efficacy of each analog was determined based on its IC50.
TRX-E-002 exists as a racemic mixture comprised of two enantiomers, enantiomer A (TRX-E-002-1) and enantiomer B (TRX-E-002-2). Thus, the enantiomers were separated and assessed separately. […]

Another test deals with cleaved/active caspase-3. As to the kind of experiment: Western blot for cleaved caspase-3 in OCSC transfected with scramble or c-Jun siRNA. To be noted: 2.45 μM for 2 hours then recovery. The procedure:
as §1
To determine the requirement for c-Jun activation in TRX-E-002-1-induced apoptosis, siRNA was used to knock-down c-Jun in chemoresistant OCSC. […] This upregulation was maintained, even when treatment was removed and cells were allowed to recover (FIG. 5C).

A further test deals with ERK. As to the kind of experiment: Phosphokinase array / Western blot for phosphorylated ERK in OCSCs. To be noted: compared to controls; from 2 h up to 24 h post-treatment. The procedure:
as §1, §2, §3

The next test relates to caspase-3/7. The test is described as follows: Caspase Glo assay, caspase-3/7. To be noted: 0.245 μM; at 16 and 24 h post treatment. On the procedure:
Total protein was extracted and measured as described in Kamsteeg, et al., 2003, Oncogene 22:2611-2620. Activity of caspase 3/7 and caspase 9 was quantified using Caspase Glo assay (Promega).
The activities of caspase-3/7 and caspase-9 were assessed at 2, 4, 6, 8, 16, and 24 hours post-treatment with TRX-E-002-1.

For test [2], the system named is OCC2 (CD44-/MyD88- ovarian cancer cells). The test is described as follows: IC50 against chemosensitive ovarian cancer cells OCC2. The note with it: read-out: IC50 (percentage of viable cells). The procedure:
CD44+/MyD88+ ovarian cancer stem cell clones (OCSC1 and OCSC2) and CD44−/MyD88− ovarian cancer cells (OCC1 and OCC2) were isolated from either tumor tissue or ascites obtained from patients diagnosed with stage III/IV serous ovarian cancer and propagated (Alvero, et al., 2009, Cell Cycle 8:158-166; Chefetz, et al., 2013, Cell Cycle 12:511-521). The epithelial nature of the isolated cells was determined by immunostaining for Ck18. Purity of the cultures based on CD44 expression by flow cytometry and chemoresistance were routinely tested. […]
as §5
Once the efficacy of TRX-E-002-1 against chemoresistant OCSC was established, its activity against two clones of chemosensitive ovarian cancer cells (OCC1 and OCC2) was determined.

As usually defined, the IC50 is the point on the concentration scale where inhibition reaches its midpoint. Consider `COc1cc(C2COc3c(ccc(O)c3C)C2c2ccc(O)cc2)cc(OC)c1O` (single isomer, unassigned) [TRX-E-002-1], for which the “total c-Jun” value in the test on c-Jun (Western blot time course) is listed as “time-dependent increase”. In addition, the “levels of phosphorylated c-Jun (p-c-Jun)” value in the test on c-Jun (compared to controls, from 2 h up to 24 h post-treatment) was “higher levels”. Also, in the test on OCSC2 spheroids, the “amount of intact spheroids” value is given as “significantly decreased”. In addition, the IC50 was found to be 47 nM in test [1] and 27 nM in test [2]. For the same compound, the “cleaved/active caspase-3” value in the test with cleaved/active caspase-3 (c-Jun knocked-down by siRNA) is recorded as “not detectable”; in the test with cleaved/active caspase-3 (scramble siRNA), “appearance of cleaved/active caspase-3”. In the test on ERK, the “levels of phosphorylated-ERK (p-ERK)” value is given as “lower levels”. The caspase-3/7 activity result in the test on caspase-3/7 is given as “significant increase”.
